# Results published in patent US5521156A, “Cyclic neurokinin A antagonists” (priority 1994, dated 1996).
# Where a SMILES comes first, the peptide text is derived from it. [ ]: non-standard residue; d: D form.
# Biological target: T1, human jejunal NK-2 receptor (Homo sapiens, UniProt P21452)
# T1 construct: expressed in transfected cells; host or cells: HSKR-1 (mouse 3T3 fibroblasts)
# T1 sequence (P21452 1-398): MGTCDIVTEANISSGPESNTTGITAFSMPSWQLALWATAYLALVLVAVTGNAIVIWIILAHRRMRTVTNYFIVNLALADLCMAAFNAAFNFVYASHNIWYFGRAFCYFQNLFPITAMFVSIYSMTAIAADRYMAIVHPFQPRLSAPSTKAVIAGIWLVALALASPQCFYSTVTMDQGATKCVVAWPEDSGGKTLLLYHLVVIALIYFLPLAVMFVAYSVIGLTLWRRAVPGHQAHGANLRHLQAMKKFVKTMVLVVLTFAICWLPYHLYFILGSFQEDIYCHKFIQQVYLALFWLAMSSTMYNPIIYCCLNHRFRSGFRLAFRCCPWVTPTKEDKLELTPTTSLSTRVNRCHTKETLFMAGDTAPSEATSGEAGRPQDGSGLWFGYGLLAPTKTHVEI
# Test: NK-2 receptor binding (125I-neurokinin A) in HSKR-1 cell membranes
# Settings: HSKR-1 cells (mouse 3T3 fibroblasts expressing human jejunal NK-2 receptor); 0.1 nM 125I-iodohistidyl-1-neurokinin A; mean ± S.E.M.
# Description: Receptor binding assays were performed in crude tissue membranes. The NK-1 receptor binding affinity of proposed tachykinin antagonists was evaluated in guinea pig lungs (Keystone Biologicals, Cleveland, OH, kept frozen at -80° C. until use). Affinity for the NK-2 receptor was evaluated in HSKR-1 cells which are mouse 3T3 fibroblasts expressing the human jejunal NK-2 receptor. Tissues or cells were homogenized with a Polytron in 15 volumes of 50 mM Tris-HCl buffer (pH 7.4, 4° C.) containing 120 mM NaCl and 5 mM KCl and centrifuged at 48,000×g for 12 min. at 4° C. The pellet was resuspended in 15 volumes of 50 mM Tris-HCl buffer containing 10 mM EDTA and 300 mM KCl then set on ice for 30 min. The suspension was cetrifuged as above and the pellet washed by resuspension and cetrifugation two additional times in 50 mM Tris-HCl buffer (pH 7.4, 4° C.). The final pellet was resuspended in a concentration of 20 mg/ml in incubation buffer then kept at room temperature for at least 15 min prior to use. Receptor binding was initiated by addition of 250 μl membrane preparation (final protein concentration; lungs=286 μg/tube, HSKR-1 cells=100 μg/tube) in duplicate to 0.1 nM of the following radioligands: for NK-1 receptor assays, ^125 I-Bolton-Hunter Lys-3 labeled substance P (New England Nuclear, specific activity, 2200 Ci/mmol); for NK-2 receptor assays, ^125 iodohistidyl-1-neurokinin A (Amersham, specific activity, 2000 Ci/mmol) in a final volume of 500 μl of buffer containing 50 mM Tris-HCl (pH 7.4 at room temperature), 0.1% bovine serum albumin, 2 mM MnCl2, 40 μg/ml bacitracin, 4 μg/ml leupeptin and chymostatin, 1 μM thiorphan and various doses of the tachykinin antagonists. Incubations were performed at room temperature for 90 min (NK-1 receptor assays) or 2 hr (NK-2 receptor assays); binding was terminated by addition of 50 mM Tris-HCl buffer (pH 7.4, 4° C.) and filtration under vacuum through GF/B filters presoaked with 0.1% polyethyleneimine (NK-1 receptor assays) or 0.5% bovine serum albumin (NK-2 receptor assays). Nonspecific binding was defined as binding in the presence of 1 μM substance P (NK-1 receptor assays) or neurokinin A (NK-2 receptor assays) (Peptides International, Inc., Louisville, Ky.). Specific binding was calculated by subtracting nonspecific binding from total binding and corresponded to 70-90% of total binding. Data were analyzed and IC50 values generated by nonlinear regression using an iterative curve fitting program (GraphPAD Inplot, San Diego, Calif.). Protein was determined by the method of Lowry.
structure (smiles),measurement,value
"CC(C)C[C@@H]1NC(=O)[C@@H](Cc2c[nH]c3ccccc23)NC(=O)[C@H](Cc2ccc(O)cc2)NC(=O)CNC(=O)[C@H](Cc2c[nH]c3ccccc23)NC(=O)[C@H](CCCNC(=N)N)NC1=O [cyclo[Tyr--trp--Leu--Arg--Trp--Gly], cyclo[Tyr-trp-Leu-Arg-Trp-Gly]] (cyclo(GY[dW]LRW))",IC50,6.79 ± 0.69 nM
